Assay results taken from the NIST ThermoML archive (doi:10.1016/j.tca.2004.08.013).
± gives the expanded uncertainty stated by the source.

Conditions: 101.33 kPa, Liquid

SMILES	mass density (303.15 K) [kg/m3]	viscosity (303.15 K) [mPa·s]	mass density (313.15 K) [kg/m3]	viscosity (313.15 K) [mPa·s]
C1COCCO1 [1,4-dioxane]	1022.3 ± 0.3	1.086 ± 0.018	–	–
CCCCN [1-butanamine]	728.65 ± 0.81	0.444 ± 0.009	719.17 ± 0.82	0.393 ± 0.008
CCC(C)=O [butanone]	799.69 ± 0.61	0.365 ± 0.007	–	–
CCCCOC(C)=O [butyl ethanoate]	871.28 ± 0.48	0.644 ± 0.011	–	–
Clc1ccccc1 [chlorobenzene]	1095.49 ± 0.45	0.718 ± 0.012	–	–
CCCCNCCCC [dibutylamine]	752.28 ± 0.77	0.758 ± 0.013	743.44 ± 0.78	0.665 ± 0.012
CCCNCCC [dipropylamine]	731.21 ± 0.8	0.512 ± 0.01	726.15 ± 3	0.423 ± 0.008
CCOC(C)=O [ethyl acetate]	888.42 ± 0.45	0.399 ± 0.008	–	–
O=[N+]([O-])c1ccccc1 [nitrobenzene]	1193.4 ± 0.63	1.617 ± 0.025	–	–
CCCN [propan-1-amine]	706.1 ± 0.84	0.353 ± 0.007	696.04 ± 0.86	0.313 ± 0.007
ClC(Cl)(Cl)Cl [tetrachloromethane]	1574.78 ± 1.4	0.852 ± 0.014	1555.02 ± 1.4	0.76 ± 0.013
CCCCN(CCCC)CCCC [tributylamine]	770.21 ± 0.74	1.167 ± 0.02	763.11 ± 0.75	0.97 ± 0.017
ClC(Cl)Cl [trichloromethane]	1470.64 ± 1.2	0.52 ± 0.009	1448.43 ± 1.1	0.471 ± 0.009
CCN(CC)CC [triethylamine]	718.44 ± 0.82	0.33 ± 0.007	–	–
CCCN(CCC)CCC [tripropylamine]	749.15 ± 0.78	0.598 ± 0.011	740.41 ± 0.79	0.538 ± 0.01
